Assay results as given in PubChem BioAssay (NCI).
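Test compounds were applied to cells in 96-well plates for 48 hours at 5 doses. TGI: concentration producing complete growth inhibition.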

Columns and labels:
Test in all cases: DTP human tumour cell line panel, 48 h
LOX IMVI melanoma = test system: LOX IMVI melanoma
HOP-62 NSCLC = test system: HOP-62 NSCLC
UO-31 renal = test system: UO-31 renal
MCF7 breast = test system: MCF7 breast
OVCAR-5 ovarian = test system: OVCAR-5 ovarian
CCRF-CEM leukemia = test system: CCRF-CEM leukemia
SN12C renal = test system: SN12C renal
HCT-15 colon = test system: HCT-15 colon
T-47D breast = test system: T-47D breast
TK-10 renal = test system: TK-10 renal
RPMI-8226 leukemia = test system: RPMI-8226 leukemia
MDA-MB-435 = test system: MDA-MB-435
K-562 leukemia = test system: K-562 leukemia
SK-OV-3 ovarian = test system: SK-OV-3 ovarian
SK-MEL-5 melanoma = test system: SK-MEL-5 melanoma
OVCAR-8 ovarian = test system: OVCAR-8 ovarian
MDA-N = test system: MDA-N
SNB-75 CNS = test system: SNB-75 CNS
HOP-92 NSCLC = test system: HOP-92 NSCLC
KM12 colon = test system: KM12 colon
CAKI-1 renal = test system: CAKI-1 renal
EKVX NSCLC = test system: EKVX NSCLC
OVCAR-4 ovarian = test system: OVCAR-4 ovarian
NCI-H460 lung = test system: NCI-H460 lung
MDA-MB-231 breast = test system: MDA-MB-231 breast
BT-549 breast = test system: BT-549 breast
SF-539 CNS = test system: SF-539 CNS
SF-268 CNS = test system: SF-268 CNS
DU-145 prostate = test system: DU-145 prostate
A549 NSCLC = test system: A549 NSCLC
M14 melanoma = test system: M14 melanoma
MALME-3M melanoma = test system: MALME-3M melanoma
UACC-257 melanoma = test system: UACC-257 melanoma
COLO 205 colon = test system: COLO 205 colon
SNB-19 CNS = test system: SNB-19 CNS
HCT-116 colon = test system: HCT-116 colon
SK-MEL-28 melanoma = test system: SK-MEL-28 melanoma
A498 renal = test system: A498 renal
PC-3 prostate = test system: PC-3 prostate
NCI-H23 lung = test system: NCI-H23 lung
MOLT-4 leukemia = test system: MOLT-4 leukemia
HS 578T breast = test system: HS 578T breast
NCI/ADR-RES ovarian = test system: NCI/ADR-RES ovarian
U251 CNS = test system: U251 CNS
HCC-2998 colon = test system: HCC-2998 colon
UACC-62 melanoma = test system: UACC-62 melanoma
SF-295 CNS = test system: SF-295 CNS
SW-620 colon = test system: SW-620 colon
OVCAR-3 ovarian = test system: OVCAR-3 ovarian
RXF 393 renal = test system: RXF 393 renal
SR leukemia = test system: SR leukemia
NCI-H226 lung = test system: NCI-H226 lung
HL-60(TB) leukemia = test system: HL-60(TB) leukemia
HT29 colon = test system: HT29 colon
NCI-H522 lung = test system: NCI-H522 lung
IGROV1 ovarian = test system: IGROV1 ovarian
786-0 renal = test system: 786-0 renal
SK-MEL-2 melanoma = test system: SK-MEL-2 melanoma
ACHN renal = test system: ACHN renal

Compound: Cc1cc(S(=O)(=O)N=C2N(Cc3ccccc3)CCN2Cc2ccccc2)c(S)cc1Cl
- TGI (LOX IMVI melanoma): > 100 µM
- TGI (HOP-62 NSCLC): > 100 µM
- TGI (UO-31 renal): 47.4 µM
- TGI (MCF7 breast): > 100 µM
- TGI (OVCAR-5 ovarian): > 100 µM
- TGI (CCRF-CEM leukemia): > 100 µM
- TGI (SN12C renal): > 100 µM
- TGI (HCT-15 colon): > 100 µM
- TGI (T-47D breast): > 100 µM
- TGI (TK-10 renal): > 100 µM
- TGI (RPMI-8226 leukemia): > 100 µM
- TGI (MDA-MB-435): > 100 µM
- TGI (K-562 leukemia): > 100 µM
- TGI (SK-OV-3 ovarian): > 100 µM
- TGI (SK-MEL-5 melanoma): > 100 µM
- TGI (OVCAR-8 ovarian): > 100 µM
- TGI (MDA-N): > 100 µM
- TGI (SNB-75 CNS): > 100 µM
- TGI (HOP-92 NSCLC): > 100 µM
- TGI (KM12 colon): > 100 µM
- TGI (CAKI-1 renal): > 100 µM
- TGI (EKVX NSCLC): > 100 µM
- TGI (OVCAR-4 ovarian): > 100 µM
- TGI (NCI-H460 lung): > 100 µM
- TGI (MDA-MB-231 breast): > 100 µM
- TGI (BT-549 breast): > 100 µM
- TGI (SF-539 CNS): > 100 µM
- TGI (SF-268 CNS): > 100 µM
- TGI (DU-145 prostate): > 100 µM
- TGI (A549 NSCLC): > 100 µM
- TGI (M14 melanoma): > 100 µM
- TGI (MALME-3M melanoma): > 100 µM
- TGI (UACC-257 melanoma): > 100 µM
- TGI (COLO 205 colon): > 100 µM
- TGI (SNB-19 CNS): > 100 µM
- TGI (HCT-116 colon): > 100 µM
- TGI (SK-MEL-28 melanoma): > 100 µM
- TGI (A498 renal): > 100 µM
- TGI (PC-3 prostate): > 100 µM
- TGI (NCI-H23 lung): > 100 µM
- TGI (MOLT-4 leukemia): > 100 µM
- TGI (HS 578T breast): > 100 µM
- TGI (NCI/ADR-RES ovarian): > 100 µM
- TGI (U251 CNS): > 100 µM
- TGI (HCC-2998 colon): > 100 µM
- TGI (UACC-62 melanoma): > 100 µM
- TGI (SF-295 CNS): > 100 µM
- TGI (SW-620 colon): > 100 µM
- TGI (OVCAR-3 ovarian): > 100 µM
- TGI (RXF 393 renal): > 100 µM
- TGI (SR leukemia): > 100 µM
- TGI (NCI-H226 lung): > 100 µM
- TGI (HL-60(TB) leukemia): > 100 µM
- TGI (HT29 colon): > 100 µM
- TGI (NCI-H522 lung): > 100 µM
- TGI (IGROV1 ovarian): > 100 µM
- TGI (786-0 renal): > 100 µM

Compound: Oc1ccccc1C(Sc1nc2ccccc2s1)Sc1nc2ccccc2s1
- TGI (LOX IMVI melanoma): > 100 µM
- TGI (HOP-62 NSCLC): > 100 µM
- TGI (UO-31 renal): > 100 µM
- TGI (MCF7 breast): > 100 µM
- TGI (OVCAR-5 ovarian): > 100 µM
- TGI (CCRF-CEM leukemia): > 100 µM
- TGI (SN12C renal): > 100 µM
- TGI (HCT-15 colon): > 100 µM
- TGI (T-47D breast): 73.5 µM
- TGI (SK-MEL-2 melanoma): > 100 µM
- TGI (TK-10 renal): > 100 µM
- TGI (RPMI-8226 leukemia): > 100 µM
- TGI (MDA-MB-435): > 100 µM
- TGI (K-562 leukemia): > 100 µM
- TGI (SK-OV-3 ovarian): > 100 µM
- TGI (SK-MEL-5 melanoma): > 100 µM
- TGI (OVCAR-8 ovarian): > 100 µM
- TGI (MDA-N): > 100 µM
- TGI (SNB-75 CNS): > 100 µM
- TGI (HOP-92 NSCLC): 95 µM
- TGI (KM12 colon): > 100 µM
- TGI (CAKI-1 renal): > 100 µM
- TGI (EKVX NSCLC): 77.9 µM
- TGI (OVCAR-4 ovarian): > 100 µM
- TGI (NCI-H460 lung): > 100 µM
- TGI (MDA-MB-231 breast): > 100 µM
- TGI (BT-549 breast): > 100 µM
- TGI (SF-268 CNS): > 100 µM
- TGI (DU-145 prostate): > 100 µM
- TGI (A549 NSCLC): > 100 µM
- TGI (M14 melanoma): > 100 µM
- TGI (MALME-3M melanoma): > 100 µM
- TGI (UACC-257 melanoma): > 100 µM
- TGI (COLO 205 colon): > 100 µM
- TGI (SNB-19 CNS): > 100 µM
- TGI (HCT-116 colon): > 100 µM
- TGI (SK-MEL-28 melanoma): > 100 µM
- TGI (A498 renal): > 100 µM
- TGI (PC-3 prostate): > 100 µM
- TGI (NCI-H23 lung): > 100 µM
- TGI (MOLT-4 leukemia): > 100 µM
- TGI (HS 578T breast): > 100 µM
- TGI (NCI/ADR-RES ovarian): > 100 µM
- TGI (U251 CNS): > 100 µM
- TGI (HCC-2998 colon): > 100 µM
- TGI (UACC-62 melanoma): > 100 µM
- TGI (SF-295 CNS): > 100 µM
- TGI (ACHN renal): > 100 µM
- TGI (SW-620 colon): > 100 µM
- TGI (OVCAR-3 ovarian): > 100 µM
- TGI (RXF 393 renal): > 100 µM
- TGI (SR leukemia): > 100 µM
- TGI (NCI-H226 lung): > 100 µM
- TGI (HL-60(TB) leukemia): > 100 µM
- TGI (HT29 colon): > 100 µM
- TGI (NCI-H522 lung): 56.8 µM
- TGI (IGROV1 ovarian): > 100 µM
- TGI (786-0 renal): > 100 µM
